Experimental data reported in patent US20250295600A1, “EXTRACELLULAR VESICLES DERIVED FROM MILK AND PROCESS FOR ISOLATING THE SAME” (EVOBIOTIX SA, priority 2021, published 2025).

Test system: Candida albicans SC5314
Assay: Susceptibility of Candida albicans, broth microdilution method
Format: cell-based
Settings: 24 hours, replicate 1
Method: Susceptibility of Candida albicans SC5314 to milk EVs and milk EVs loaded with Amphotericin B (AmpB) was performed by the broth microdilution method, using RPMI-1640 medium and MOPS buffer in a concentration range from 200 nM and 0.39 nM for AmpB loaded EVs and equal particles/mL of unloaded EVs. AmpB alone was also tested at concentrations from 8 µM to 15.12 nM.
The broth micro dilution test is performed using sterile round bottomed 96 well microtiter plates. 50 μL of 1×PBS at pH 7.4 is added to Rows 1 to Row 7, except for Column 1 of Row 3 to Row 7. 100 μL of EVs (BMEV, BMEV-AmpB, GMEV and GMEV-AmpB) at 2× desired concentrations is added to Rows 4 to Row 7 of Column 1. 100 μL of AmpB at 2× desired concentration (i.e. 16 μM) is added to Row 3 of Column 1. 2-fold dilutions were performed by transferring 50 μL from Column 1 to Column 10 of Rows 3 to 7, and homogenised to ensure proper dilution of the compound by half. Row 1 was used as a blank for spectrophotometric readings and Row 2 is used as a growth control. After the plates are prepared, 2× inoculum concentration are prepared with a total cell concentration of 1e+3 to 5e+3 CFU/mL prepared in RPMI 1640 media (with glutamine, without bicarbonate, and with phenol red as a pH indicator) in MOPS according to CLSI media preparation guidelines. Each well of the microtiter plate was inoculated with 50 μL of the 2× inoculum to yield a final cell concentration of 0.5e+3 to 2.5e+3 CFU/mL in the wells. After inoculation, the plates are incubated at 35° C. for 24 hours. Post-incubation, the plates are read at 600 nm using the Thermo Scientific Multiskan Go, and data was recorded. Agitation prior to reading the plate will help with accurate readings.
10.4 g powdered RPMI 1640 medium (with glutamine and phenol red, without bicarbonate); 34.53 g MOPS (3-[N-morpholino] propanesulfonic acid) buffer.
Dissolve powdered medium in 900 mL distilled H2O. Add MOPS (final concentration of 0.165 mol/L) and stir until dissolved. While stirring, adjust the pH to 7.0 at 25° C. using 1 mol/L sodium hydroxide.
Add additional water to bring medium to a final volume of 1 L. Filter sterilize and store at 4° C. until use.
The steps for preparation of inoculum are as follows: • I. Candida albicans SC5314 was subcultured from sterile vials onto Sabouraud dextrose agar or Potato Dextrose agar and passaged to ensure purity and viability. The incubation temperature throughout was 35° C. • II. The inoculum was prepared by picking five colonies of ca. 1 mm in diameter from 24-hour old culture. The colonies were suspended in 1 mL of sterile 1×PBS at pH 7.4. A 10-fold dilution was prepared in PBS. 10 μL of the diluted inoculum with equal volume of Trypan Blue was mixed and counted using a haemocytometer. • III. The suspension should be vortexed for 15 seconds and the cell density adjusted by adding sufficient sterile 1×RPMI-1640 to yield a cell concentration of 1e+3 to 5e+3 CFU/mL.

C[C@@H]1[C@H](O)[C@@H](C)/C=C/C=C/C=C/C=C/C=C/C=C/C=C/[C@H](O[C@@H]2O[C@H](C)[C@@H](O)[C@H](N)[C@@H]2O)C[C@@H]2O[C@](O)(C[C@@H](O)C[C@@H](O)[C@H](O)CC[C@@H](O)C[C@@H](O)CC(=O)O[C@H]1C)C[C@H](O)[C@H]2C(=O)O [AmpB, Amphotericin B]
Abs (read at 600 nm) (AmpB concentration 15.12 nM): 0.13
Abs (read at 600 nm) (AmpB concentration 31.25 nM): 0.15
Abs (read at 600 nm) (AmpB concentration 62.5 nM): 0.13
Abs (read at 600 nm) (AmpB concentration 125 nM): 0.15
Abs (read at 600 nm) (AmpB concentration 250 nM): 0.13
Abs (read at 600 nm) (AmpB concentration 500 nM): 0.08
Abs (read at 600 nm) (AmpB concentration 1 μM): 0.08
Abs (read at 600 nm) (AmpB concentration 2 μM): 0.00
Abs (read at 600 nm) (AmpB concentration 4 μM): 0.00
Abs (read at 600 nm) (AmpB concentration 8 μM): 0.00
